Test results published in patent EP0118867A2, “Substituted 4,10-dihydro-10-oxothieno benzoxepins, a method of preparing the same and intermediate thereof and their use as medicaments” (HOECHST-ROUSSEL PHARMACEUTICALS INCORPORATED, priority 1983, dated 1984).
Read-outs that look alike come from different tables or passages of the source.

How the values were obtained:
[1] = test system: carrageenin induced rat paw edema; assay: carrageenin induced rat paw edema anti-inflammatory assay; format: in vivo; conditions: for inhibition at 20 mg/kg: read-out: Time Response at 20 mg/kg % Inhibition; for ED50: po; for inhibition at 25 mg/kg: read-out: Time Response at 25 mg/kg % Inhibition
From the text: The compounds of the present invention are useful as anti-inflammatory agents due to their ability to suppress inflammation in mammals. […] Exptl. Biol. Med., III 544 (1962), J. Pharmacol. Exp. 141 […]] .

[2] = test system: 2-phenyl-1,4-benzoquinone-induced writhing; assay: 2-phenyl-1,4-benzoquinone-induced writhing test (analgesia); format: in vivo, mice; conditions: Mus musculus, po
From the text: Compounds of the present invention are also useful as analgesic agents due to their ability to alleviate pain in mammals. […] Exptl. Biol. Med., 95, 729 (1957)].

[3] = pretreatment 6 hrs, read-out: ED50
[4] = analgesic data, read-out: ED50 (p.o.)

Structure (SMILES)	inhibition at 20 mg/kg ([1]; pretreatment time 2 hrs.)	inhibition at 20 mg/kg ([1]; pretreatment time 6 hrs)	inhibition at 20 mg/kg ([1]; pretreatment time 24 hrs)	ED50 [2, 4]	inhibition at 20 mg/kg ([1]; pretreatment time 18 hrs)	also measured
COC(=O)CCCc1ccc2c(c1)C(=O)c1sccc1CO2 [4-(4,10-Dihydro-10-oxothieno[3,2-c][1]benzoxepin-8-yl)-butyric acid methyl ester]	24%	54%	16%	10.8 mg/kg	–	inhibition at 20 mg/kg ([1]; pretreatment time 8 hrs): 62%; ED50 [1, 3]: 10.3 mg/kg
CCOC(=O)CCCc1ccc2c(c1)C(=O)c1sccc1CO2 [Ethyl 4-[4,10-dihydro-10-oxothieno[3,2-c][1]benzoxepin-8-yl]butyrate]	40%	48%	22%	8.2 mg/kg	15%	–
CC1(C)OCC(COC(=O)CCCc2ccc3c(c2)C(=O)c2sccc2CO3)O1 (racemic) [(±)[2,2-Dimethyl-1,3-dioxolan-4-yl]methyl 4-[4,10-dihydro-10-oxothieno[3,2-c][1]benzoxepin-8-yl]butyrate]	20%	61%	41%	11.2 mg/kg	32%	ED50 [1, 3]: 14.5 mg/kg
CC1=C(CC(=O)O)c2cc(F)ccc2/C1=C\c1ccc([S+](C)[O-])cc1 (stereo not shown) [sulindac, reference compound]	–	–	–	–	–	ED50 ([1]; in a similar test, read-out: anti-inflammatory ED50): 10.7 mg/kg; ED50 ([2]; in a similar test, read-out: analgesic ED50): 6.2 mg/kg
CC(C)(C)OC(=O)CCCc1ccc2c(c1)C(=O)c1sccc1CO2 [t-Butyl 4-[4,10-dihydro-10-oxothieno-[3,2-c][1]benzoxepin-8-yl]butyrate]	49%	–	–	–	–	inhibition at 20 mg/kg ([1]; pretreatment time 1 hr.): 42%; inhibition at 20 mg/kg ([1]; pretreatment time 4 hrs): 43%
O=C(O)CCCc1ccc2c(c1)C(=O)c1sccc1CO2 [4-(4,10-dihydro-10-oxothieno[3,2-c][1]benzoxepin-8-yl)-butyric acid]	–	–	–	–	–	inhibition at 25 mg/kg ([1]; pretreatment time 0.5 hr.): 49%; inhibition at 25 mg/kg ([1]; pretreatment time 1 hr): 52%; inhibition at 25 mg/kg ([1]; pretreatment time 2 hrs.): 79%; inhibition at 25 mg/kg ([1]; pretreatment time 3 hrs): 94%; inhibition at 25 mg/kg ([1]; pretreatment time 4 hrs): 95%; inhibition at 25 mg/kg ([1]; pretreatment time 6 hrs): 67%; inhibition at 25 mg/kg ([1]; pretreatment time 8 hrs): 47%; ED50 ([1]; 1 h, p.o., pretreatment 60 min, read-out: ED50): 77.9 mg/kg
O=C(CCCc1ccc2c(c1)C(=O)c1sccc1CO2)OCC(O)CO (racemic) [1-[(4,10-Dihydro-10-oxothieno[3,2-c][1]-benzoxepin-8-yl)-4-butyryl] glyceride]	–	–	–	9.4 mg/kg	–	–
CC(C)OC(=O)CCCc1ccc2c(c1)C(=O)c1sccc1CO2 [4-(4,10-Dihydro-10-oxothieno[3,2-c][1]benzoxepin-8-yl)-butyric acid isopropyl ester]	31%	71%	26%	8.5 mg/kg	57%	ED50 ([1]; pretreatment 2 hrs, estimated, read-out: Estimated ED50): 21.8 mg/kg
CC(CCC(=O)O)c1ccc2c(c1)C(=O)c1sccc1CO2 (racemic) [(±)-4-(4,10-Dihydro-10-oxothieno[3,2-c][1]benzoxepin-8-yl)pentanoic acid]	23%	–	–	–	–	inhibition at 20 mg/kg ([1]; pretreatment time 1 hr.): 25%; inhibition at 20 mg/kg ([1]; pretreatment time 4 hrs): 28%
